Source: ChEMBL document CHEMBL1130050, “Novel conformationally extended naphthalene-based inhibitors of farnesyltransferase” (J Med Chem, 1997)
Square brackets hold non-standard residues; d marks the D form. Peptide text beside a SMILES is read from it. Tic = O=C(O)[C@@H]1Cc2ccccc2CN1; NMeM = CN[C@@H](CCSC)C(=O)O; NMeV = CN[C@H](C(=O)O)C(C)C; Nle = CCCC[C@H](N)C(=O)O

Experiments:
[1] = target: T1, Protein farnesyltransferase (Homo sapiens, UniProt P49354+P49356); assay: Ratio of FTase IC50 values compared to compound 8; format: protein-complex assay
[2] = target: T1, Protein farnesyltransferase; assay: Inhibition of [3H]FPP incorporation into human Ha-Ras by farnesyltransferase; format: protein-complex assay
[3] = target: T1, Protein farnesyltransferase; assay: Percent inhibition of Ha-Ras protein processing in THAC (Ha-ras-transformed CCL39) cells at 10 uM; format: functional
[4] = target: T1, Protein farnesyltransferase; assay: Ratio of FTase IC50 values compared to compound 5; format: protein-complex assay
[5] = target: T1, Protein farnesyltransferase; assay: Inhibition of [3H]FPP incorporation into human Ki-Ras by farnesyltransferase; format: protein-complex assay

| Compound | IC50 [2] | inhibition [3] | Ratio [4] | further results |
| --- | --- | --- | --- | --- |
| COC(=O)[C@H](CCSC)NC(=O)[C@H](Cc1ccccc1)NC(=O)[C@@H](NC(=O)[C@@H](N)CS)C(C)C (H-CVFM-OMe) | 3400 nM | – | – | Ratio [1]: 92 |
| CSCC[C@H](/N=C(\S)[C@H](Cc1ccccc1)NC(=O)[C@@H](NC(=O)[C@@H](N)CS)C(C)C)C(=O)O | – | – | – | Ratio [1]: 0.5 |
| CSCC[C@H](NC(=O)[C@@H]1Cc2ccccc2CN1C(=O)[C@H](C(C)C)N(C)C(=O)[C@@H](N)CS)C(=O)O (H-C[NMeV][Tic]M-OH) | – | 0% | – | – |
| CSCC[C@@H](C(=O)O)N(C)C(=O)c1cccc2c(NC[C@@H](N)CS)cccc12 | 210 nM | – | 37.5 | – |
| CSCC[C@H](NC(=O)c1cccc2c(NC(=O)[C@@H](N)CS)cccc12)C(=O)O | – | 0% | – | – |
| CCCC[C@H](NC(=O)c1cccc2c(NC[C@@H](N)CS)cccc12)C(=O)O | 44 nM | – | 8 | – |
| CSCC[C@@H](C(=O)O)N(C)C(=O)[C@H](Cc1ccccc1)NC(=O)[C@@H](NC(=O)[C@@H](N)CS)C(C)C (H-CVF[NMeM]-OH) | 1400 nM | – | – | Ratio [1]: 38 |
| CSCC[C@H](NC(=S)c1cccc2c(NC[C@@H](N)CS)cccc12)C(=O)O | 4.8 nM | – | – | – |
| CSCC[C@H](NC(=O)c1cccc2c(NC[C@@H](N)CS)cccc12)C(=O)O | – | 0% | 1 | – |
| CSCC[C@H](NC(=O)c1cccc2cc(NC(=O)[C@@H](N)CS)ccc12)C(=O)O | 60 nM | – | – | IC50 [5]: 1250 nM |
| CSCC[C@H](/N=C(\S)c1cccc2c(NC[C@@H](N)CS)cccc12)C(=O)O | – | – | 0.9 | – |
| CSCC[C@H](NC[C@H](Cc1ccccc1)NC(=O)[C@@H](NC(=O)[C@@H](N)CS)C(C)C)C(=O)O | – | – | – | Ratio [1]: 60 |
| CCCC[C@H](NC(=O)[C@H](Cc1ccccc1)NC(=O)[C@@H](NC(=O)[C@@H](N)CS)C(C)C)C(=O)O (H-CVF[Nle]-OH) | 950 nM | – | – | Ratio [1]: 26 |
| CSCC[C@H](NCc1cccc2c(NC[C@@H](N)CS)cccc12)C(=O)O | – | – | 54 | – |
| CSCC[C@H](NC(=O)c1cccc2cc(NC[C@@H](N)CS)ccc12)C(=O)O | – | 10% | – | IC50 [5]: 17.5 nM |
| COC(=O)[C@H](CCSC)NC(=O)c1cccc2c(NC[C@@H](N)CS)cccc12 | 325 nM | 20% | 58 | – |
| COC(=O)[C@H](CCSC)NC(=O)c1cccc2cc(NC[C@@H](N)CS)ccc12 | – | > 50% | – | IC50 [5]: 500 nM |
| CSCC[C@H](NC(=S)[C@H](Cc1ccccc1)NC(=O)[C@@H](NC(=O)[C@@H](N)CS)C(C)C)C(=O)O | 17 nM | – | – | – |
